# Test results as given in ChEMBL document CHEMBL1152737, “Synthesis and biological evaluation of fused thio- and selenopyrans as new indolocarbazole analogues with aryl hydrocarbon receptor affinity” (Bioorg Med Chem, 2009).
# Test system: Aryl hydrocarbon receptor (Cavia porcellus)
# Experiment: Activation of AhR expressed in guinea pig cytosolic fractions over expressed with XRE by ELISA based Ah-immunoassay relative to TCDD
row,Compound,Activity
1,Cc1c2c3ccccc3nc-2sc2[nH]c3ccccc3c12,0.36
2,COc1ccc2nc3[se]c4[nH]c5ccc(OC)cc5c4cc-3c2c1,0.009
3,O=c1c2c([nH]c3ccccc32)sc2[nH]c3ccccc3c12,0.039
4,C1=Cc2sc3ccccc3c2Sc2c1sc1ccccc21,0.055
5,CC1(C)c2c([nH]c3ccccc23)Sc2[nH]c3ccccc3c21,0.0033
6,Cc1c2c3ccccc3nc-2[se]c2[nH]c3ccccc3c12,0.38
7,C1=Cc2sc3ccccc3c2[Se]c2c1sc1ccccc21,0.018
8,COc1ccc2nc3[se]c4[nH]c5ccc(OC)cc5c4c(C)c-3c2c1,0.013
9,c1ccc2c(c1)[nH]c1cc3c(cc12)[nH]c1ccccc13,1.48
10,c1ccc2c3cc4c([nH]c5ccccc54)sc-3nc2c1,0.29
11,c1ccc2c3cc4c([nH]c5ccccc54)[se]c-3nc2c1,0.32
12,c1ccc2c3cc4[nH]c5ccccc5c4sc-3nc2c1,0.132
